Source: the NIST ThermoML archive (doi:10.1016/j.jct.2009.04.006)
± gives the expanded uncertainty stated by the source.

Assays:
[1] = refractive index (Na D-line) (dimensionless); settings: 298.15 K; 101.33 kPa; Liquid; Standard Abbe refractometry
[2] = Liquid; for mass density: 101.33 kPa, Pycnometric method; for vapor or sublimation pressure: Isoteniscope

## CC(Cl)(Cl)Cl [1,1,1-trichloroethane]
[1]
  refractive index: 1.4354 ± 0.0004
[2]; 298.15 K
  mass density: 1328.7 ± 0.6 kg/m3
  vapor or sublimation pressure: 16.64 ± 0.19 kPa
[2]; 308.15 K
  vapor or sublimation pressure: 25.85 ± 0.22 kPa
[2]; 318.15 K
  vapor or sublimation pressure: 37.61 ± 0.25 kPa

## CCCCCl [1-chlorobutane]
[1]
  refractive index: 1.3991 ± 0.0004
[2]; 298.15 K
  mass density: 880.9 ± 0.4 kg/m3
  vapor or sublimation pressure: 13.72 ± 0.15 kPa
[2]; 308.15 K
  vapor or sublimation pressure: 20.66 ± 0.19 kPa
[2]; 318.15 K
  vapor or sublimation pressure: 31.46 ± 0.23 kPa

## O=C1CCCCC1 [cyclohexanone]
[1]
  refractive index: 1.4482 ± 0.0004
[2]; 298.15 K
  mass density: 943 ± 0.4 kg/m3
  vapor or sublimation pressure: 0.64 ± 0.05 kPa
[2]; 308.15 K
  vapor or sublimation pressure: 1.16 ± 0.06 kPa
[2]; 318.15 K
  vapor or sublimation pressure: 1.92 ± 0.06 kPa
